Source: article PMC11078990, “Identification and characterization of small molecule inhibitors of the LINE-1 retrotransposon endonuclease” (Nature Communications, 2024)
Values joined by “and” are separate entries in the source; they are usually repeats but may differ in a detail not shown here. Equal values may be shown once. Read-outs that look alike come from different tables or passages of the source.

How the values were obtained:
[1] = test system: senescent LF1 human diploid fibroblasts (IFN-I and Aging gene sets); experiment: RNA-seq / Gene Set Enrichment Analysis of senescent cultures; assay type: cell-based; settings: senescent cultures treated 1 month beginning at 3 months senescence
[2] = test system: senescent LF1 human diploid fibroblasts (IL6, IL1β, CCL2, IFNα, MMP3); experiment: RT-qPCR of inflammatory markers in replicatively senescent fibroblasts; assay type: cell-based
L1 retrotransposition = experiment: HeLa dual-luciferase L1 retrotransposition assay; assay type: cell-based, human
HeLa Tet-On cells = settings: human
[3] = target: L1 EN (LINE-1 retrotransposon endonuclease domain) (Homo sapiens, UniProt O00370, N5T); experiment: Fluorescent oligonucleotide EN nicking activity assay; assay type: biochemical
[4] = test system: DNA fragmentation (comet tail length) in HeLa Tet-On cells expressing EN domain; experiment: Neutral comet assay, EN domain-only constructs; assay type: cell-based, human
[5] = test system: substrate oligonucleotide used in the EN activity assay; assay type: binding; design: key to Binding Detected? (Y/N): Binding Detected? (Y/N); Binding Detected? (Y/N)
[6] = test system: L1-induced DNA damage in HeLa Tet-On cells (full-length L1); experiment: γ-H2AX immunofluorescence assay, full-length L1 constructs; assay type: cell-based, human
APE1 = target: T1, APE1 (Homo sapiens, UniProt P27695); experiment: APE1 fluorescent oligonucleotide activity assay (abasic site substrate); assay type: biochemical; settings: for activity at 25 µM: read-out: APE1 activity (%)
T1 construct: purchased New England Biolabs (NEB) M0282S

[7] = read-out: EN activity, percent of no inhibitor control

Sequence of L1 EN (LINE-1 retrotransposon endonuclease domain) (O00370 1-239 N5T): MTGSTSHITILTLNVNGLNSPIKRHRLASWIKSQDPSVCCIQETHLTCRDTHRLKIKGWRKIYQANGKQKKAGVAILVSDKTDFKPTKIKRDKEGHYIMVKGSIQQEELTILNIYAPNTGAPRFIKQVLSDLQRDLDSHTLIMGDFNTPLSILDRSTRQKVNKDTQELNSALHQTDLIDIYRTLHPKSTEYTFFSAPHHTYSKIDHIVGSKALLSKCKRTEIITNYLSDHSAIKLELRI

With `Nc1ccn([C@@H]2CS[C@H](CO)O2)c(=O)n1` [3TC, Lamivudine, reference compound] the “Expression of IFN-I gene set and aging gene set (RNA-seq, GSEA)” value [1] was “decreased expression”, the “MMP3 RT-qPCR, average (EP = 1)” value ([2]; 10 μM, senescent cells, SEN control […], 3 replicates) was 1.892 and the “IL1β RT-qPCR, average (EP = 1)” value ([2]; 10 μM, senescent cells, SEN control 8.256, 3 replicates) was 10.61. For the same compound, the “CCL2 RT-qPCR, average (EP = 1)” value ([2]; 10 μM, senescent cells, SEN control 8.589, 3 replicates) was 4.199, the “IFNα RT-qPCR, average (EP = 1)” value ([2]; 10 μM, senescent cells, SEN control 18.65, 3 replicates) was 15.66 and the “IL6 RT-qPCR, average (EP = 1)” value ([2]; 10 μM, senescent cells, SEN control 22.45, 3 replicates) was 13.65. For the same compound, the “Luciferase (retrotransposition), average” value (L1 retrotransposition; Figure 4a Graph 1, 10 μM, 0 μM average 9.554) was 1.753, the “Luciferase (retrotransposition), replicates” value (“Luciferase … replicates” below) (L1 retrotransposition; Figure 4a Graph 1, 10 μM, Replicates 1-4, 0 μM average 9.554) was 1.525 and 1.282 and 1.336 and 2.868 and the “Luciferase (retrotransposition), average” value (L1 retrotransposition; Figure 4a Graph 2, 10 μM, 0 μM average 9.679) was 1.648. The “Luciferase … replicates” value (L1 retrotransposition; Figure 4a Graph 2, 10 μM, Replicates 1-4, 0 μM average 9.679) was 2.547 and 1.556 and 1.337 and 1.153, the “Luciferase (retrotransposition), average” value (L1 retrotransposition; Figure 4a Graph 3, 10μM, 0μM average 17.91) was 3.723 and the “Luciferase … replicates” value (L1 retrotransposition; Figure 4a Graph 3, 10μM, Replicates 1-4, 0μM average 17.91) was 3.272 and 3.5538 and 3.891 and 4.176. The “Luciferase (retrotransposition), average” value (L1 retrotransposition; Figure 4a Graph 4, 10μM, 0μM average 3.426) was 0.6208, the “Luciferase … replicates” value (L1 retrotransposition; Figure 4a Graph 4, 10μM, Replicates 1-4, 0μM average 3.426) was 0.3413 and 0.6639 and 1.079 and 0.3984 and the “Luciferase (retrotransposition), average” value (L1 retrotransposition; Figure 4a Graph 5, 10μM, 0μM average 4.537) was 0.4847. For the same compound, the “Luciferase … replicates” value (L1 retrotransposition; Figure 4a Graph 5, 10μM, Replicates 1-4, 0μM average 4.537) was 0.5984 and 0.4472 and 0.3986 and 0.4945.

In the case of `C/C(C[C@H](c1ccccc1)c1c(O)c2ccccc2oc1=O)=N\Nc1ccc([N+](=O)[O-])cc1[N+](=O)[O-]` [AD3], the “PrestoBlue (viability), average” value (HeLa Tet-On cells) is reported as 15.41, the “EN activity, percent of no inhibitor control” value ([3]; 1 µM) is reported as 108.117% and 78.9256% and 93.3444% and the “EN activity, percent of no inhibitor control” value ([3]; 5 µM) is reported as 93.5701% and 96.3453%. The “EN activity, percent of no inhibitor control” value ([3]; 10 µM) was 99.3729%, the “EN activity, percent of no inhibitor control” value ([3]; 25 µM) was 99.0637% and 102.756% and the “EN activity, percent of no inhibitor control” value ([3]; 50 µM) was 87.9685% and 80.8738% and 62.1552%. The “EN activity, percent of no inhibitor control” value ([3]; 100 µM) was 53.1232% and 37.4643% and 59.5468%, the “EN activity, percent of no inhibitor control” value ([3]; 250 µM) was 26.1232% and 25.9631% and the “EN activity, percent of no inhibitor control” value ([3]; 500 µM) was 1.104% and 2.0558% and 4.103%. The “EN activity, percent of no inhibitor control” value ([3]; 1000 µM) was 0.8695% and 0.8159%, the remaining activity at 5 µM [3, 7] was 89.6% and the remaining activity at 10 µM [3, 7] was 99.4%. It also gave a remaining activity at 25 µM [3, 7] of 95.7%, a remaining activity at 250 µM [3, 7] of 25.7% and a remaining activity at 1000 µM [3, 7] of 1.63%. The “Nuclei comet tail length, average (WT = 1)” value (from here on “Nuclei comet tail length”) [4] was 0.568, the “Binding Detected? (Y/N)” value [5] was “N” and the “Inhibition of DNA damage, full-length L1 experiments” value [6] was “best inhibition”. The “APE1 percent activity, Replicate 1” value (APE1) was 92.838%, the “APE1 percent activity, Replicate 3” value (APE1) was 104.006% and the “APE1 percent activity, average” value (APE1) was 103.516%. The “Percent APE1 activity, average” value (APE1) was 95.58%, the “Percent APE1 activity, replicates” value (APE1) was 101.896% and 94.978% and 89.8705% and the activity at 25 µM (APE1) was 104 ± 10.4%. The “IL1β RT-qPCR, average (EP = 1)” value [2] was 4.703, the “IL6 RT-qPCR, average (EP = 1)” value [2] was 6.462 and the “Inhibition of inflammation in senescent cells” value [2] was “showed efficacy”. For the same compound, the “MMP3 RT-qPCR, average (EP = 1)” value [2] was 2.136, the “Luciferase (retrotransposition), average” value (L1 retrotransposition) was 1.378 and the “Luciferase … replicates” value (L1 retrotransposition) was 0.9116 and 1.591 and 1.485 and 1.524.

`Nn1cnn2c(SCC(=O)Nc3nnc(SCC(=O)Nc4ccc(S(N)(=O)=O)cc4)s3)nnc12` [AD29] was tested, and the “PrestoBlue (viability), average” value (HeLa Tet-On cells; 48 h, 50 μM) was 15.21, the “EN activity, percent of no inhibitor control” value ([3]; [Inhibitor] 0.5 μM, technical replicates 1-3, Fig. 2b source data, 0.5 µM) was 96.7352% and 105.013% and the remaining activity at 0.5 µM ([3]; [Inhibitor] 0.5 μM, technical replicates 1-3, Fig. 2b source data, read-out: EN activity, percent of no inhibitor control) was 97.3%. For the same compound, the “EN activity, percent of no inhibitor control” value ([3]; [Inhibitor] 5 μM, technical replicates 1-3, Fig. 2b source data, 5 µM) was 89.8647% and 119.947% and 95.1949%, the “EN activity, percent of no inhibitor control” value ([3]; [Inhibitor] 10 μM, technical replicates 1-3, Fig. 2b source data, 10 µM) was 90.2289% and 93.2039% and the remaining activity at 10 µM ([3]; [Inhibitor] 10 μM, technical replicates 1-3, Fig. 2b source data, read-out: EN activity, percent of no inhibitor control) was 89.2%. The “EN activity, percent of no inhibitor control” value ([3]; [Inhibitor] 25 μM, technical replicates 1-3, Fig. 2b source data, 25 µM) was 63.7726% and 70.2623%, the remaining activity at 25 µM ([3]; [Inhibitor] 25 μM, technical replicates 1-3, Fig. 2b source data, read-out: EN activity, percent of no inhibitor control) was 64.2% and the “EN activity, percent of no inhibitor control” value ([3]; [Inhibitor] 50 μM, technical replicates 1-3, Fig. 2b source data, 50 µM) was 34.0986% and 27.5313%. The remaining activity at 50 µM ([3]; [Inhibitor] 50 μM, technical replicates 1-3, Fig. 2b source data, read-out: EN activity, percent of no inhibitor control) was 24.6%, the “EN activity, percent of no inhibitor control” value ([3]; [Inhibitor] 100 μM, technical replicates 1-3, Fig. 2b source data, 100 µM) was 8.595% and 8.689% and the remaining activity at 100 µM ([3]; [Inhibitor] 100 μM, technical replicates 1-3, Fig. 2b source data, read-out: EN activity, percent of no inhibitor control) was 5.53%. For the same compound, the “EN activity, percent of no inhibitor control” value ([3]; [Inhibitor] 250 μM, technical replicates 1-3, Fig. 2b source data, 250 µM) was 1.937% and 2.743%, the remaining activity at 250 µM ([3]; [Inhibitor] 250 μM, technical replicates 1-3, Fig. 2b source data, read-out: EN activity, percent of no inhibitor control) was 2.22% and the “EN activity, percent of no inhibitor control” value ([3]; [Inhibitor] 500 μM, technical replicates 1-3, Fig. 2b source data, 500 µM) was 1.591% and 1.804% and 0.7296%. For the same compound, the “Nuclei comet tail length” value ([4]; 50 μM inhibitor, EN domain-only construct, neutral comet assay, normalised to WT) was 0.4772, the “Binding Detected? (Y/N)” value [5] was “N” and the “APE1 percent activity, Replicate 1” value (APE1; compound at 25 μM, Replicate 1) was 83.829%. The “APE1 percent activity, Replicate 2” value (APE1; compound at 25 μM, Replicate 2) was 79.0708%, the “APE1 percent activity, Replicate 3” value (APE1; compound at 25 μM, Replicate 3) was 80.6497% and the “APE1 percent activity, average” value (APE1; compound at 25 μM, average of 3 replicates) was 81.1831%. For the same compound, the activity at 25 µM (APE1; inhibitors at 25 μM, relative to 0 μM inhibitor control, mean ± s.d., 3 independent experiments) was 81.2 ± 2.4%, the “Luciferase (retrotransposition), average” value (L1 retrotransposition; Figure 4a Graph 4, 50μM, 0μM average 3.426) was 2.638 and the “Luciferase … replicates” value (L1 retrotransposition; Figure 4a Graph 4, 50μM, Replicates 1-4, 0μM average 3.426) was 2.47 and 2.591 and 2.484 and 3.007.

`O=C(CCCCCCCCCCC(=O)Nc1cccc([N+](=O)[O-])c1)Nc1cccc([N+](=O)[O-])c1` [AD11] was tested, and the “PrestoBlue (viability), average” value (HeLa Tet-On cells) was 15.84, the “EN activity, percent of no inhibitor control” value ([3]; 0.1 µM) was 84.764% and 74.2098% and the “EN activity, percent of no inhibitor control” value ([3]; 0.5 µM) was 87.7394% and 79.0744%. For the same compound, the “EN activity, percent of no inhibitor control” value ([3]; 1 µM) was 78.4622% and 83.3471%, the “EN activity, percent of no inhibitor control” value ([3]; 5 µM) was 48.2874% and 49.6964% and the “EN activity, percent of no inhibitor control” value ([3]; 25 µM) was 8.361% and 7.932%. For the same compound, the “EN activity, percent of no inhibitor control” value ([3]; 50 µM) was 2.144% and 3.212%, the “EN activity, percent of no inhibitor control” value ([3]; 100 µM) was 0.8407% and 0.78% and 1.633% and the remaining activity at 0.1 µM [3, 7] was 87.2%. The remaining activity at 0.5 µM [3, 7] was 73.3%, the remaining activity at 1 µM [3, 7] was 78.1% and the remaining activity at 5 µM [3, 7] was 54.9%. The remaining activity at 25 µM [3, 7] was 6.58%, the remaining activity at 50 µM [3, 7] was 2.44% and the remaining activity at […] [3, 7] was 65.8%. The “Nuclei comet tail length” value [4] was 0.8117, the “Binding Detected? (Y/N)” value [5] was “N” and the “APE1 percent activity, Replicate 1” value (APE1) was 77.2032%. The “APE1 percent activity, Replicate 2” value (APE1) was 89.204%, the “APE1 percent activity, Replicate 3” value (APE1) was 71.7475% and the “APE1 percent activity, average” value (APE1) was 79.3849%. For the same compound, the activity at 25 µM (APE1) was 79.4 ± 8.9%, the “L1 retrotransposition, average” value (L1 retrotransposition) was 2.364 and 2.4307 and 2.013 and 1.968 and 2.0024 and 1.896 and 1.695 and 1.484 and the “Luciferase (retrotransposition), average” value (L1 retrotransposition) was 3.993. The “Luciferase … replicates” value (L1 retrotransposition) was 4.575 and 4.225 and 3.621 and 3.549.
